The source of these data is US20210023099A1, “COMBINATION THERAPY WITH A BET INHIBITOR AND A PROTEASOME INHIBITOR” (Hoffmann-La Roche Inc., priority 2018, published 2021).

In one assay the test system is OPM-2 MM xenografts. Put plainly: In vivo antitumor efficacy against OPM-2 MM xenografts. The conditions noted are these: Day 31, s.c. OPM-2 xenografts in female Scid beige mice, bortezomib 0.5 mg/kg iv 2xQ7D; for Tumor Regression % / TGI % (Tumor growth inhibition): RG6146 30 mg/kg ip QD D17-31; for TGI % (Tumor growth inhibition): vs control; for npTCR (non-parametric Treatment to Control Ratio) / Tumor free animal (complete tumor remission): RG6146 30 mg/kg ip QD; for npTCR (non-parametric Treatment to Control Ratio): CI printed in the lines below; for Tumor free animal (complete tumor remission): animals tumor free / group. The method, then: The in vivo antitumor efficacy of BET inhibitor RG6146 in combination with proteasome inhibitor bortezomib was evaluated against OPM-2 MM xenografts.
The original OPM-2 human Multiple Myeloma cell line (MM) was purchased from ATCC (Manassas, Va., USA). Expansion of tumor cells for the transplantation was done by the TAP CompacT CellBase Cell Culture Roboter according to the protocol. Tumor cell line was routinely cultured in RPMI 1640 medium, FCS 10% and L-Glutamin 2 mM at 37° C. in a water-saturated atmosphere at 5% CO2. Culture passage was performed with trypsin/EDTA 1× splitting twice/week and passage 2 used for transplantation.
Female Scid beige mice (Charles River), age 6-7 weeks at arrival, maintained under specific-pathogen-free condition with daily cycles of 12 h light/12 h darkness according to committed guidelines. Experimental study protocol was reviewed and approved by local government. After arrival animals were maintained in animal facility for one week to get accustomed to new environment and for observation. Continuous health monitoring was carried out on regular basis. Diet food and autoclaved water were provided ad libitum.
(§1) Animals were controlled daily for clinical symptoms and detection of adverse effects. For monitoring throughout the experiment body weight of animals was documented.
Animal treatment started after randomisation when median tumor size was about 115 mm^3. The vehicle was administered ip once daily (QD) on D17-31. BET inhibitor RG6146 ip treatment at 30 mg/kg was done as single agent and in combination on D17-31. Finally, proteasome inhibitor bortezomib was given i.v. at 0.5 mg/kg as single agent and in combination twice a week for two weeks.
OPM-2 human MM cells were s.c. inoculated with Matrigel onto female Scid beige mice. Tumor bearing mice were randomized 17 days later to the indicated study groups and compound treatment initiated. Tumor bearing animals were treated with vehicle control, with the BET inhibitor RG6146 at 30 mg/kg or with proteasome inhibitor bortezomib at 0.5 mg/kg as single agent and in combination thereof.

Another assay deals with MM1S MM xenografts. Kind of assay: In vivo antitumor efficacy against MM1S MM xenografts. To be noted: Day 28, s.c. MM1s xenografts in female CIEA NOG mice, bortezomib 0.5 mg/kg iv 2 x Q7D; for Tumor Regression % / TGI % (Tumor growth inhibition): RG6146 30 mg/kg ip QD D14-28; for TGI % (Tumor growth inhibition): vs control; for npTCR (non-parametric Treatment to Control Ratio): RG6146 30 mg/kg ip QD, CI printed in the line below. The method, then: The in vivo antitumor efficacy of BET inhibitor RG6146 in combination with proteasome inhibitor bortezomib was evaluated against MM1S MM xenografts.
The original MM1s human Multiple Myeloma cell line (MM) was purchased from ATCC (Manassas, Va., USA). Expansion of tumor cells for the transplantation was done by the TAP CompacT CellBase Cell Culture Roboter according to the protocol. Tumor cell line was routinely cultured in RPMI 1640 medium, FCS 10% and L-Glutamin 2 mM at 37° C. in a water-saturated atmosphere at 5% CO2. Culture passage was performed with trypsin/EDTA 1× splitting twice/week and passage 2 used for transplantation.
Female CIEA NOG mice (Taconic), age 5-6 weeks at arrival, maintained under specific-pathogen-free condition with daily cycles of 12 h light/12 h darkness according to committed guidelines. Experimental study protocol was reviewed and approved by local government. After arrival animals were maintained in animal facility for one week to get accustomed to new environment and for observation. Continuous health monitoring was carried out on regular basis. Diet food and autoclaved water were provided ad libitum.
as §1
Animal treatment started after randomisation when median tumor size was about 100 mm^3. The vehicle was administered ip once daily (QD) on D14-28. BET inhibitor RG6146 ip treatment at 30 mg/kg was done as single agent and in combination on D14-28. Finally, proteasome inhibitor bortezomib was given i.v. at 0.5 mg/kg as single agent and in combination twice a week for two weeks.
MM1s human MM cells were s.c. inoculated with Matrigel onto female CIEA-NOG mice. Tumor bearing mice were randomized 14 days later to the indicated study groups and compound treatment initiated. Tumor bearing animals were treated with vehicle control, with the BET inhibitor RG6146 at 30 mg/kg or with proteasome inhibitor bortezomib at 0.5 mg/kg as single agent and in combination thereof.

Structures are written as SMILES. “And” between values parts separate entries of the source, which are not always exact repeats. Identical values can stand only once.

As to `CC(C)C[C@H](NC(=O)[C@H](Cc1ccccc1)NC(=O)c1cnccn1)B(O)O` [bortezomib, [(1R)-3-methyl-1-[[(2S)-3-phenyl-2-(pyrazine-2-carbonylamino)propanoyl]amino]butyl]boronic acid, reference compound], in the assay with OPM-2 MM xenografts, the “Tumor Regression %” value was 0%, the “TGI % (Tumor growth inhibition)” value came to 60%, the “npTCR (non-parametric Treatment to Control Ratio)” value is given as 0.34 and the “Tumor free animal (complete tumor remission)” value is on record as 0/10. Moreover, in the assay with MM1S MM xenografts, the “Tumor Regression %” value is 0%, the “TGI % (Tumor growth inhibition)” value worked out at 29% and the “npTCR (non-parametric Treatment to Control Ratio)” value was found to be 0.75.
As for `Cc1sc2c(c1C)C(c1ccc(Cl)cc1)=N[C@@H](CC(=O)NCCCN1CCN(C)CC1)c1nnc(C)n1-2` [RG6146, 2-[(S)-4-(4-chloro-phenyl)-2,3,9-trimethyl-6H-1-thia-5,7,8,9a-tetraaza-cyclopenta[e]azulen-6-yl]-N-[3-(4-methyl-piperazin-1-yl)-propyl]-acetamide], in the assay on OPM-2 MM xenografts, the “Tumor Regression %” value came to 85%; the “TGI % (Tumor growth inhibition)” value is given as greater than 100%; the “npTCR (non-parametric Treatment to Control Ratio)” value turned out to be 0.008; the “Tumor free animal (complete tumor remission)” value is 5 out of 10 and 5/10. Besides, in the assay with MM1S MM xenografts, the “Tumor Regression %” value was 0%, the “TGI % (Tumor growth inhibition)” value is recorded as 83% and the “npTCR (non-parametric Treatment to Control Ratio)” value is recorded as 0.29.
